Measured values published in patent US7629317B2, “Control of growth and repair of gastro-intestinal tissues by gastrokines and inhibitors” (The University of Chicago, priority 2001, dated 2009).

How the values were obtained:
IEC-18 cells [1] = assay: Wound restitution (migration) of scrape-wounded IEC-18 cell monolayers; type: cell-based, rat
Experimental: Confluent monolayer cultures were mechanically wounded by scraping with a razor blade, and the distance that cells migrated from the wound edge was measured using a microscope eyepiece reticle.
In a separate set of experiments DSS reduced restitution of scrape-wounded cultures of non-transformed diploid rat intestinal epithelial IEC-18 cells (P<0.001) (FIG. 29, right panel). When DSS was removed by aspirating the medium and the cultures allowed to recover for 24 hr after scrape wounding, cell migration during the next 24 hr was 40% greater in the presence of AMP peptide compared to vehicle (P<0.001).

[2] = system: protein kinase (PK) C zeta (ζ); assay: Phosphorylation of PKCζ in C2 cells (immunoblotting, confocal microscopy); type: cell-based, human; conditions: within 20 min
Excerpt: To learn more about how AMP peptide could participate in the establishment of TJ structures and epithelial cell polarity during epithelial wound healing, attention was focused on protein kinase (PK) C zeta (ζ), an atypical PKC that appears to be required for assembly of TJs (Suzuki et al., 2001). PKCζ, presumably in its active form phospho-PKCζ, regulates TJs, apparently by interacting with several TJ-associated proteins including occludin, PAR-6, and PAR-3.

WI-38 fibroblasts = assay: Growth of WI-38 fibroblasts (non-GI control); type: cell-based, human; conditions: peptide up to 8 μg/ml
Experimental: (§1) To characterize the capacity of gastric and intestinal cells to respond to AMP-18, AGS gastric adenocarcinoma cells, HAE human gastric antrum mucosa primary cultures transformed with SV40 large T antigen, rat diploid small intestinal epithelial cells of the IEC-6 (FIG. 15) and IEC-18 lines, NCI N-87 gastric carcinoma cells, and SK-GT5 gastroesophageal adenocarcinoma cells were studied; human WI-38 fibroblasts and HeLa cells served as non-GI control cell lines. Mitogenesis was assayed by performing cell counts 3 to 4 days after exposing cells to the agent of interest, trypsinizing the culture to prepare single cells, and confirming this while counting them in a hemocytometer.

Acinetobacter baumanii = assay: Growth of other bacteria and fungi; type: cell-based
HAE cells = assay: Growth of human antrum epithelial (HAE) cells (cell count 4 days later); type: cell-based
Experimental: To measure growth (left panel), HAE cells were plated in 60-mm dishes. Peptide 77-97 (8 μg/ml), or EGF (50 ng/ml), or both were added to the medium and the number of cells counted 4 days later. […] Values are means±SE for 3 cultures. To measure migration (right panel), cells were grown in 60-mm dishes to prepare a confluent monolayer. The medium was aspirated and replaced with fresh medium containing 0.01% calf serum (CS). The monolayer was mechanically wounded by scraping with a razor blade. Detached cells were removed by aspirating medium, and rinsing the remaining cells twice with fresh medium containing 0.01% CS. Fresh medium (5 ml) containing CS (0.01%) and insulin (100 U/L) was added to wounded cultures. Either peptide 77-97 (8 μg/ml), EGF (50 ng/ml), or both were added to duplicate cultures. Migration was assessed at 24, 48 and 72 hr after wounding by measuring the distance (in mm) that cells had migrated from the wound edge using a microscope eyepiece reticle (10-mm long; 0.1-mm markings). Migrating cells at 12 randomly chosen sites along a 0.25-mm stretch of the wound edge were measured at 40-fold magnification. Migration at 2 different sites was measured for each of 2 separate wounds made in each culture. Values are the mean distance cells moved into the denuded area from the edge of 4 different wounds in 2 cultures±SE.
as §1

IEC-18 cells [3] = assay: Growth of confluent cultures of IEC-18 cells (cell count); type: cell-based, rat; conditions: confluent IEC-18 cultures, FIG. 13; read-out: half-maximal concentration (K1/2) for growth stimulation
Experimental: Confluent cultures of IEC-18 cells were prepared. One day later, medium was aspirated and replaced with 5 ml of DMEM containing CS (0.5%) and insulin, without (control) or with mitogenic peptide 58-99 (8 μg/ml). Sister plates receiving 1 ml medium and different amounts of peptide 67-85 were incubated at 1 hr at 38° C. on a CO2 incubator, and then an additional 4 ml of medium was added to each dish. Peptide 58-99 was added to 2 of the 4-sister plates at each concentration of peptide 67-85, and the number of cells was counted. […] Stimulation of cell growth by mitogenic peptide 58-99 was completely abolished by preincubation of cells with 0.25 μg/ml of peptide 67-85. […] Values for the number of cells per culture are shown relative to multiplication of cells exposed to the vehicle during the same period.
Urea (6 M) was employed to release proteins from the insoluble fraction solubilize rhAMP-18 containing the His6-tag (SEQ ID NO: 16), and make it available to bind to the Ni^2+-charged resin from which it was subsequently eluted with a gradient of imidazole (0 to 200 mM). The amount of eluted rhAMP-18 was measured using the BCA assay, and the appearance of a single band at the predicted size of 19-20 kD was confirmed by SDS-PAGE followed by immunoblotting. To determine if eluted rhAMP-18 renatured to assume a structure that was mitogenic, aliquots of the eluate (following removal of urea and imidazole by dialysis) were added to cultures of IEC-18 cells and the number of cells was counted 4 days later. […] AMP peptide 77-97 refers to the mature protein; same as peptide 97-117 of human precursor protein: Table 1. These observations indicate that biologically active recombinant human AMP-18 that can be utilized in diverse clinical situations is available. The mitogenic potency of rhAMP-18 is in the nanomolar range which would be expected for a native gastric cell growth factor that participates in the maintenance and repair of the stomach in vivo.
as §1

[4] = system: mice with Pseudomonas aeruginosa-induced gut-derived sepsis; assay: Pseudomonas aeruginosa-induced gut-derived sepsis in mice; type: in vivo, female Balb/c mice; conditions: 15 mg/kg i.p for 4 days, s.c. for 1 day; all vehicle animals dead; listed as AMP peptide
Experimental: To determine if AMP peptide could play a cytoprotective role in GDS, a study was carried out in C2 cell monolayers that were exposed to the PA-I lectin. […] Next the effect of AMP peptide was studied in the mouse model of P. aeruginosa-induced-GDS (Laughlin et al., 2000) using female Balb/c mice subjected to 30% hepatectomy, injection of a solution of living P. aeruginosa into the cecum, and food deprivation postoperatively. All 8 of the mice survived surgery.

## LDALVKEKKLQGKGPGGPPPK [97–117, peptide 77-97 of the mature protein, same as 97-117 of the human precursor]
IEC-18 cells [1]; 24 hr recovery after scrape wounding, next 24 hr, P<0.001
  cell migration greater than vehicle after DSS removal: 40%
IEC-18 cells [1]; each time point, P<0.005
  migration from the wound edge compared with control: migrated further
[2]
  phosphorylation of PKCζ: increase in phosphorylation
WI-38 fibroblasts
  growth stimulation of WI-38 fibroblasts: does not stimulate growth
WI-38 fibroblasts; listed as AMP peptide
  growth stimulation of WI-38 fibroblasts: failure
Acinetobacter baumanii
  growth of Acinetobacter baumanii: did not alter the growth
HAE cells; peptide 77-97 8 μg/ml + EGF 50 ng/ml
  proliferation together with EGF: additive
HAE cells; peptide 77-97 8 μg/ml, EGF 50 ng/ml, 4 days
  proliferation of HAE cells (in words): stimulated proliferation
IEC-18 cells [3]
  EC50: ~300 nM
[4]
  survival one day after P. aeruginosa injection into the cecum: alive and well
